The target in the experiment is T1, PI3Kδ (Homo sapiens, UniProt O00329).
T1 construct: The protein is full length and co-expressed with untagged PIK3R1; GST; purchased Invitrogen PV5274
T1 sequence (O00329 whole entry): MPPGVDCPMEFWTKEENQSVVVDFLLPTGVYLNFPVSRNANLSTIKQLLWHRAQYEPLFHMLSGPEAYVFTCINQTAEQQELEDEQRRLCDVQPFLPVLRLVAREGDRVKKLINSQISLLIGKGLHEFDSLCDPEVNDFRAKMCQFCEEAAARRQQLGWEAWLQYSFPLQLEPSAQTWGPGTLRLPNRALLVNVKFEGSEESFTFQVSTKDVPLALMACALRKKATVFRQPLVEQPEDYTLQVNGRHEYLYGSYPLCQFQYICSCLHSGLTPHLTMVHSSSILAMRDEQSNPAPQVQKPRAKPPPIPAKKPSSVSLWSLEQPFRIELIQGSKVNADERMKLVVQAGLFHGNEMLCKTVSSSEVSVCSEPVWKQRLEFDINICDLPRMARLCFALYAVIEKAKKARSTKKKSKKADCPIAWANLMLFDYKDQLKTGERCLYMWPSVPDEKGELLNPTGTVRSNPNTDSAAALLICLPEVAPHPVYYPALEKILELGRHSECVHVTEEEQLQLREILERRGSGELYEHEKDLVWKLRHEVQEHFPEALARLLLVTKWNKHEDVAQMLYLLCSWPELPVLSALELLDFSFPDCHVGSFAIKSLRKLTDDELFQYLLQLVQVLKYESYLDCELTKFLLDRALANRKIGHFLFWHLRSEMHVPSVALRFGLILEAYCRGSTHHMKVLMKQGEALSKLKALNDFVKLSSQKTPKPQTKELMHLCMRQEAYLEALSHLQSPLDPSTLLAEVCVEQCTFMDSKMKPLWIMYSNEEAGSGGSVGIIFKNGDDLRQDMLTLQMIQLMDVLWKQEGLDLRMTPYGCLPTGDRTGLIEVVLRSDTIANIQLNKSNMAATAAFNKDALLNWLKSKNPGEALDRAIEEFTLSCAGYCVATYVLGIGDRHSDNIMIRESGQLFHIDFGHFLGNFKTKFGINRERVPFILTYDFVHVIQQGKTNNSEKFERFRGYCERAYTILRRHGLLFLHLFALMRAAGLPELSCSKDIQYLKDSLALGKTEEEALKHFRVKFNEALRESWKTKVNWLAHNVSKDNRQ
T1 sequence (P27986 whole entry partner): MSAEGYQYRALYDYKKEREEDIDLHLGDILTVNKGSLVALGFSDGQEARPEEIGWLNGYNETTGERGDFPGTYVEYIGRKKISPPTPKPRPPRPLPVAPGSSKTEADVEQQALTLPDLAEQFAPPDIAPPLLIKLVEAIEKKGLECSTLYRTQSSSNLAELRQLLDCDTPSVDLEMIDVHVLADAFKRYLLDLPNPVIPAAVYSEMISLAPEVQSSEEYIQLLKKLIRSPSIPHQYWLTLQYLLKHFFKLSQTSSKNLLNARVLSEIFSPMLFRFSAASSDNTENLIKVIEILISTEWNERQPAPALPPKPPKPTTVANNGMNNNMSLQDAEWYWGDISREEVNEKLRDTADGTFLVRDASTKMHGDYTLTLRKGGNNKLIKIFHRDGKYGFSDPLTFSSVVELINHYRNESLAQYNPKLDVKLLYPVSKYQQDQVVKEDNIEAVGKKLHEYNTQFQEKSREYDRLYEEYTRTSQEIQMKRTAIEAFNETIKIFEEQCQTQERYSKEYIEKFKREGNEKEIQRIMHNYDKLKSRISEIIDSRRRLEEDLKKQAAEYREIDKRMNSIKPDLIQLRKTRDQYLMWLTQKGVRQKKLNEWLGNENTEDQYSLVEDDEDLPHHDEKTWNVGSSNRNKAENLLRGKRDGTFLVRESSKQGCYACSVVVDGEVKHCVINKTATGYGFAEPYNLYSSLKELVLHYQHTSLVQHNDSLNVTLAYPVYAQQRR
Nature of the experiment: PI3Kδ inhibition, modified PIK3CD Adapta TR-FRET assay. It counts as biochemical. To be noted: recombinant GST-tagged full length PIK3CD co-expressed with PIK3R1 (p85α); 2 μM ATP, 50 μM PIP2; read-out: PI3Kδ Inhibition (pIC50) (converted). The method in brief:
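Inhibition was derived from % conversion against positive and negative controls, with ADP read by Adapta Eu-antibody/tracer TR-FRET. Room-temperature reactions used GST-PIK3CD/p85α in HEPES pH 7.5 buffer (MgCl2, EGTA, NaCl, CHAPS, fresh DTT), 1% DMSO final and 12 concentrations. They were initiated by adding 2 μM ATP/50 μM PIP2 solution.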
(TR-FRET usually uses a lanthanide donor and a delayed reading to cut background.)
As for `Cc1ccccc1N1C[C@@H]2COCCN2c2nc(-c3cccc4[nH]ccc34)ncc21` [Example 187, (R)-2-(1H-indol-4-yl)-5-(o-tolyl)-5,6,6a,7,9,10-hexahydro-[1,4]oxazino[3,4-h]pteridine], the IC50 is 0.126 µM. Turning to `CCc1cc(CN2C[C@@H]3COCCN3c3nc(-c4cccc5[nH]ccc45)ncc32)on1` [Example 188, (R)-5-((3-ethylisoxazol-5-yl)methyl)-2-(1H-indol-4-yl)-5,6,6a,7,9,10-hexahydro-[1,4]oxazino[3,4-h]pteridine], the IC50 is 0.0398 µM. Next, `OC1CCC(N2C[C@@H]3COCCN3c3nc(-c4cccc5[nH]ccc45)ncc32)CC1` (stereo partly drawn) [Example 189, (R)-4-(2-(1H-indol-4-yl)-6a,7,9,10-tetrahydro-[1,4]oxazino[3,4-h]pteridin-5(6H)-yl)cyclohexanol]: 0.00794 µM; `CCOC(=O)c1cccc(N2C[C@@H]3COCCN3c3nc(-c4cccc5[nH]ccc45)ncc32)c1` [Example 190, (R)-ethyl 3-(2-(1H-indol-4-yl)-6a,7,9,10-tetrahydro-[1,4]oxazino[3,4-h]pteridin-5(6H)-yl)benzoate]: 0.0251 µM.

With `CS(=O)(=O)c1cccc(N2C[C@@H]3COCCN3c3nc(-c4cccc5[nH]ccc45)ncc32)c1` [Example 191, (R)-2-(1H-indol-4-yl)-5-(3-(methylsulfonyl)phenyl)-5,6,6a,7,9,10-hexahydro-[1,4]oxazino[3,4-h]pteridine], the IC50 was 0.00316 µM. Next, `c1cc(-c2ncc3c(n2)N2CCOC[C@H]2CN3C2CCOCC2)c2cc[nH]c2c1` [Example 192, (R)-2-(1H-indol-4-yl)-5-(tetrahydro-2H-pyran-4-yl)-5,6,6a,7,9,10-hexahydro-[1,4]oxazino[3,4-h]pteridine]: 0.00316 µM; `c1cc(-c2ncc3c(n2)N2CCOC[C@H]2CN3c2cccc3[nH]ccc23)c2cc[nH]c2c1` [Example 193, (R)-2,5-di(1H-indol-4-yl)-5,6,6a,7,9,10-hexahydro-[1,4]oxazino[3,4-h]pteridine]: 0.794 µM. Under `c1cc(-c2ncc3c(n2)N2CCOC[C@H]2CN3CCC2OCCO2)c2cc[nH]c2c1` [Example 194, (R)-5-(2-(1,3-dioxolan-2-yl)ethyl)-2-(1H-indol-4-yl)-5,6,6a,7,9,10-hexahydro-[1,4]oxazino[3,4-h]pteridine] stands 0.00316 µM; under `COC(=O)CCCN1C[C@@H]2COCCN2c2nc(-c3cccc4[nH]ccc34)ncc21` [Example 195, (R)-methyl 4-(2-(1H-indol-4-yl)-6a,7,9,10-tetrahydro-[1,4]oxazino[3,4-h]pteridin-5(6H)-yl)butanoate], 0.00316 µM; under `O=C(O)CCCN1C[C@@H]2COCCN2c2nc(-c3cccc4[nH]ccc34)ncc21` [Example 196, (R)-4-(2-(1H-indol-4-yl)-6a,7,9,10-tetrahydro-[1,4]oxazino[3,4-h]pteridin-5(6H)-yl)butanoic acid], 0.00631 µM.

For the compound `N[C@H]1CC[C@H](CN2C[C@@H]3COCCN3c3nc(-c4cccc5[nH]ccc45)ncc32)CC1` [Example 197], the IC50 was 3.16 µM. On to `CCOC(=O)c1cncc(N2C[C@@H]3COCCN3c3nc(-c4cccc5[nH]ccc45)ncc32)c1` [Example 198, (R)-ethyl 5-(2-(1H-indol-4-yl)-6a,7,9,10-tetrahydro-[1,4]oxazino[3,4-h]pteridin-5(6H)-yl)nicotinate], for which the IC50 is 0.0158 µM.

`COC(=O)c1cncc(N2C[C@@H]3COCCN3c3nc(-c4cccc5[nH]ccc45)ncc32)c1` [Example 199, (R)-methyl 5-(2-(1H-indol-4-yl)-6a,7,9,10-tetrahydro-[1,4]oxazino[3,4-h]pteridin-5(6H)-yl)nicotinate]: the IC50 is 1 µM. `COc1cncc(N2C[C@@H]3COCCN3c3nc(-c4cccc5[nH]ccc45)ncc32)c1` [Example 201, (R)-2-(1H-indol-4-yl)-5-(5-methoxypyridin-3-yl)-5,6,6a,7,9,10-hexahydro-[1,4]oxazino[3,4-h]pteridine]: the IC50 was 0.0126 µM.

Consider `COC(=O)c1cc(N2C[C@@H]3COCCN3c3nc(-c4cccc5[nH]ccc45)ncc32)cnc1OC` [Example 202, (R)-methyl 5-(2-(1H-indol-4-yl)-6a,7,9,10-tetrahydro-[1,4]oxazino[3,4-h]pteridin-5(6H)-yl)-2-methoxynicotinate], for which the IC50 is 0.00251 µM. Next, `O=C(CN1C[C@@H]2COCCN2c2nc(-c3cccc4[nH]ccc34)ncc21)Nc1ccncc1` [Example 203, (R)-2-(2-(1H-indol-4-yl)-6a,7,9,10-tetrahydro-[1,4]oxazino[3,4-h]pteridin-5(6H)-yl)-N-(pyridin-4-yl)acetamide]: 0.398 µM; `COCCNC(=O)CN1C[C@@H]2COCCN2c2nc(-c3cccc4[nH]ccc34)ncc21` [Example 204, (R)-2-(2-(1H-indol-4-yl)-6a,7,9,10-tetrahydro-[1,4]oxazino[3,4-h]pteridin-5(6H)-yl)-N-(2-methoxyethyl)acetamide]: 0.158 µM; `O=C(CN1C[C@@H]2COCCN2c2nc(-c3cccc4[nH]ccc34)ncc21)NC1CCOCC1` [Example 205, (R)-2-(2-(1H-indol-4-yl)-6a,7,9,10-tetrahydro-[1,4]oxazino[3,4-h]pteridin-5(6H)-yl)-N-(tetrahydro-2H-pyran-4-yl)acetamide]: 0.2 µM.

For the compound `Cn1cc(NC(=O)CN2C[C@@H]3COCCN3c3nc(-c4cccc5[nH]ccc45)ncc32)cn1` [Example 206, (R)-2-(2-(1H-indol-4-yl)-6a,7,9,10-tetrahydro-[1,4]oxazino[3,4-h]pteridin-5(6H)-yl)-N-(1-methyl-1H-pyrazol-4-yl)acetamide], the IC50 is 0.0501 µM. Next, `O=C(CN1C[C@@H]2COCCN2c2nc(-c3cccc4[nH]ccc34)ncc21)NC1CC1` [Example 207, (R)-2-(2-(1H-indol-4-yl)-6a,7,9,10-tetrahydro-[1,4]oxazino[3,4-h]pteridin-5(6H)-yl)-N-cyclopropylacetamide]: 0.251 µM; `CC(C)(C#N)NC(=O)CN1C[C@@H]2COCCN2c2nc(-c3cccc4[nH]ccc34)ncc21` [Example 208, (R)-2-(2-(1H-indol-4-yl)-6a,7,9,10-tetrahydro-[1,4]oxazino[3,4-h]pteridin-5(6H)-yl)-N-(2-cyanopropan-2-yl)acetamide]: 0.398 µM; `CC(C)(C)C(N)CCN1C[C@@H]2COCCN2c2nc(-c3cccc4[nH]ccc34)ncc21` (stereo partly drawn) [Example 210, 1-((R)-2-(1H-indol-4-yl)-6a,7,9,10-tetrahydro-[1,4]oxazino[3,4-h]pteridin-5(6H)-yl)-4,4-dimethylpentan-3-amine]: more than 10 µM. Next, `O=C(CN1C[C@@H]2COCCN2c2nc(-n3c(C(F)F)nc4ccccc43)ncc21)NCC1CCOCC1` [Example 211, (R)-2-(2-(2-(difluoromethyl)-1H-benzo[d]imidazol-1-yl)-6a,7,9,10-tetrahydro-[1,4]oxazino[3,4-h]pteridin-5(6H)-yl)-N-((tetrahydro-2H-pyran-4-yl)methyl)acetamide]: 0.02 µM.

Take `CN(CC1CCOCC1)C(=O)CN1C[C@@H]2COCCN2c2nc(-c3cccc4[nH]ccc34)ncc21` [Example 212, (R)-2-(2-(1H-indol-4-yl)-6a,7,9,10-tetrahydro-[1,4]oxazino[3,4-h]pteridin-5(6H)-yl)-N-methyl-N-((tetrahydro-2H-pyran-4-yl)methyl)acetamide]: the IC50 was 0.0398 µM. On to `O=C(CN1C[C@@H]2COCCN2c2nc(-c3ccc(CO)cc3)ncc21)NCC1CCOCC1` [Example 214, (R)-2-(2-(4-(hydroxymethyl)phenyl)-6a,7,9,10-tetrahydro-[1,4]oxazino[3,4-h]pteridin-5(6H)-yl)-N-((tetrahydro-2H-pyran-4-yl)methyl)acetamide], for which the IC50 is 2 µM. On to `O=C(CN1C[C@@H]2COCCN2c2nc(-c3ccccc3CO)ncc21)NCC1CCOCC1` [Example 215, (R)-2-(2-(2-(hydroxymethyl)phenyl)-6a,7,9,10-tetrahydro-[1,4]oxazino[3,4-h]pteridin-5(6H)-yl)-N-((tetrahydro-2H-pyran-4-yl)methyl)acetamide], for which the IC50 was 5.01 µM.

Consider `COCc1cccc(-c2ncc3c(n2)N2CCOC[C@H]2CN3CC(=O)NCC2CCOCC2)c1` [Example 216, (R)-2-(2-(3-(methoxymethyl)phenyl)-6a,7,9,10-tetrahydro-[1,4]oxazino[3,4-h]pteridin-5(6H)-yl)-N-((tetrahydro-2H-pyran-4-yl)methyl)acetamide], for which the IC50 was 1 µM. Next, `O=C(CN1C[C@@H]2COCCN2c2nc(-c3cccc(OC(F)F)c3)ncc21)NCC1CCOCC1` [Example 217, (R)-2-(2-(3-(difluoromethoxy)phenyl)-6a,7,9,10-tetrahydro-[1,4]oxazino[3,4-h]pteridin-5(6H)-yl)-N-((tetrahydro-2H-pyran-4-yl)methyl)acetamide]: 0.794 µM. For the compound `N#Cc1cccc(-c2ncc3c(n2)N2CCOC[C@H]2CN3CC(=O)NCC2CCOCC2)c1` [Example 218, (R)-2-(2-(3-cyanophenyl)-6a,7,9,10-tetrahydro-[1,4]oxazino[3,4-h]pteridin-5(6H)-yl)-N-((tetrahydro-2H-pyran-4-yl)methyl)acetamide], the IC50 was 1.26 µM. Next, `O=C(CN1C[C@@H]2COCCN2c2nc(-c3ccc(F)c(CO)c3)ncc21)NCC1CCOCC1` [Example 220, (R)-2-(2-(4-fluoro-3-(hydroxymethyl)phenyl)-6a,7,9,10-tetrahydro-[1,4]oxazino[3,4-h]pteridin-5(6H)-yl)-N-((tetrahydro-2H-pyran-4-yl)methyl)acetamide]: 0.251 µM; `Nc1ccc(-c2ncc3c(n2)N2CCOC[C@H]2CN3CC(=O)NCC2CCOCC2)cn1` [Example 221, (R)-2-(2-(6-aminopyridin-3-yl)-6a,7,9,10-tetrahydro-[1,4]oxazino[3,4-h]pteridin-5(6H)-yl)-N-((tetrahydro-2H-pyran-4-yl)methyl)acetamide]: 0.126 µM.
